Laboratory results taken from patent US12344597B2, “Alkoxy-substituted pyridinyl derivatives as LPA1 receptor antagonists and their use in the treatment of fibrosis” (IDORSIA PHARMACEUTICALS LTD, priority 2018, dated 2025).

Molecular target: human LPA1 receptor (Homo sapiens (Human), UniProt Q92633)
Assay: Beta-arrestin recruitment assay to determine IC50 values for human LPAR1
Type: cell-based
Details: antagonist mode, Tango EDG2-bla U2OS cells, LPA 18:1 500 nM final
Outline: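 Tango EDG2-bla U2OS cells: LPA-driven beta-arrestin/TEV protease recruitment releases Gal4-VP16, inducing beta-lactamase reporter read with live-cell substrate. Cells seeded 20 h at 37 °C beforehand. IC50 is antagonist concentration inhibiting 50% of maximal response.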

Chain of human LPA1 receptor (Q92633 whole entry): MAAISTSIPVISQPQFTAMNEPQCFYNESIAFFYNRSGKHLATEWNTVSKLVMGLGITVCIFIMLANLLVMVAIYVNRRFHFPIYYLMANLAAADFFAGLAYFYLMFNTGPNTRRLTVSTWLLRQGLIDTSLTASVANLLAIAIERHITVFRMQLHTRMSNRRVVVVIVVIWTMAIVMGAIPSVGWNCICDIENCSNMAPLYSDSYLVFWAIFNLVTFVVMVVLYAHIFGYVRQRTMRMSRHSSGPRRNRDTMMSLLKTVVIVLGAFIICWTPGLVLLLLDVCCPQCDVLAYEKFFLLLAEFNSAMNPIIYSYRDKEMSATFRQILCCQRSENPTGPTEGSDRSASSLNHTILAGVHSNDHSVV

Row | SMILES | IC50
1 | Cc1ccc(NC(=O)C2(c3ccccc3C(C)C)CN(CCC(C)(C)O)C2)c(OC(F)F)n1 [Ex 11-9, N-(2-(difluoromethoxy)-6-methylpyridin-3-yl)-1-(3-hydroxy-3-methylbutyl)-3-(2-isopropylphenyl)azetidine-3-carboxamide] | 14 nM
2 | Cc1ccc(NC(=O)C2(c3ccccc3C(C)C)CN(C(=O)C3COCCN3)C2)c(OC(F)F)n1 (stereo not shown) [Ex 12-43, N-(2-(difluoromethoxy)-6-methylpyridin-3-yl)-3-(2-isopropylphenyl)-1-(morpholine-3-carbonyl)azetidine-3-carboxamide] | 106 nM
3 | COC(=O)CCCN1CC(C(=O)Nc2ccc(C)nc2OC(F)F)(c2ccccc2C(C)C)C1 [Ex 11-28, methyl 4-(3-((2-(difluoromethoxy)-6-methylpyridin-3-yl)carbamoyl)-3-(2-isopropylphenyl)azetidin-1-yl)butanoate] | 12 nM
4 | Cc1ccc(NC(=O)C2(c3ccccc3C(C)C)CN(C(=O)N3CCN(C)CC3)C2)c(OC(F)F)n1 [Ex 17-26, N-(2-(difluoromethoxy)-6-methylpyridin-3-yl)-3-(2-isopropylphenyl)-1-(4-methylpiperazine-1-carbonyl)azetidine-3-carboxamide] | 240 nM
5 | Cc1ccc(NC(=O)C2(c3ccccc3C(C)C)CN(Cc3cccc(C(=O)O)n3)C2)c(OC(F)F)n1 [Ex 11-46, 6-((3-((2-(difluoromethoxy)-6-methylpyridin-3-yl)carbamoyl)-3-(2-isopropylphenyl)azetidin-1-yl)methyl)picolinic acid] | 17 nM
6 | Cc1ccc(NC(=O)C2(c3ccccc3C(C)C)CN(c3ccc(C(=O)O)cn3)C2)c(OC(F)F)n1 [Ex 18-2, 6-(3-((2-(difluoromethoxy)-6-methylpyridin-3-yl)carbamoyl)-3-(2-isopropylphenyl)azetidin-1-yl)nicotinic acid] | 6 nM
7 | Cc1ccc(NC(=O)C2(c3ccccc3C(C)C)CN(C(=O)CNC[C@@H](C)O)C2)c(OC(F)F)n1 [Ex 12-55, (R)-N-(2-(difluoromethoxy)-6-methylpyridin-3-yl)-1-((R)-(2-hydroxypropyl)glycyl)-3-(2-isopropylphenyl)azetidine-3-carboxamide] | 3 nM
8 | COC(=O)C1(CCCN2CC(C(=O)Nc3ccc(C)nc3OC(F)F)(c3ccccc3C(C)C)C2)CC1 [Ex 11-70, methyl 1-(3-(3-((2-(difluoromethoxy)-6-methylpyridin-3-yl)carbamoyl)-3-(2-isopropylphenyl)azetidin-1-yl)propyl)cyclopropane-1-carboxylate] | 69 nM
9 | Cc1ccc(NC(=O)C2(c3ccccc3C(C)C)CN(C(=O)O[C@H](C)C(=O)O)C2)c(OC(F)F)n1 [Ex 14-5, (R)-2-((3-((2-(difluoromethoxy)-6-methylpyridin-3-yl)carbamoyl)-3-(2-isopropylphenyl)azetidine-1-carbonyl)oxy)propanoic acid] | 9 nM
10 | CCNCCN1CC(C(=O)Nc2ccc(C)nc2OC(F)F)(c2ccccc2C(C)C)C1 [Ex 11-63, N-(2-(difluoromethoxy)-6-methylpyridin-3-yl)-1-(2-(ethylamino)ethyl)-3-(2-isopropylphenyl)azetidine-3-carboxamide] | 92 nM
11 | Cc1ccc(NC(=O)C2(c3ccccc3C(C)C)CN(C(=O)CCC(O)C(F)(F)F)C2)c(OC(F)F)n1 (stereo not shown) [Ex 12-120, N-(2-(difluoromethoxy)-6-methylpyridin-3-yl)-3-(2-isopropylphenyl)-1-(5,5,5-trifluoro-4-hydroxypentanoyl)azetidine-3-carboxamide] | 11 nM
12 | COC(=O)[C@@H](C)NC(=O)N1CC(C(=O)Nc2ccc(C)nc2OC(F)F)(c2ccccc2C(C)C)C1 [Ex 17-23, methyl (3-((2-(difluoromethoxy)-6-methylpyridin-3-yl)carbamoyl)-3-(2-isopropylphenyl)azetidine-1-carbonyl)-D-alaninate] | 5 nM
13 | CCCN(CC(=O)O)CC(=O)N1CC(C(=O)Nc2ccc(C)nc2OC(F)F)(c2ccccc2C(C)C)C1 [Ex 42, N-(2-(3-((2-(difluoromethoxy)-6-methylpyridin-3-yl)carbamoyl)-3-(2-isopropylphenyl)azetidin-1-yl)-2-oxoethyl)-N-propylglycine] | 7 nM
14 | Cc1ccc(NC(=O)C2(c3ccccc3C(C)C)CN(C(=O)/C=C/C(=O)O)C2)c(OC(F)F)n1 [Ex 12-75, (E)-4-(3-((2-(difluoromethoxy)-6-methylpyridin-3-yl)carbamoyl)-3-(2-isopropylphenyl)azetidin-1-yl)-4-oxobut-2-enoic acid] | 50 nM
15 | COC(=O)CCC(=O)N1CC(C(=O)Nc2ccc(C)nc2OC(C)C)(c2ccccc2C(C)C)C1 [Ex 12-67, methyl 4-(3-((2-isopropoxy-6-methylpyridin-3-yl)carbamoyl)-3-(2-isopropylphenyl)azetidin-1-yl)-4-oxobutanoate] | 75 nM
16 | CNCCN1CC(C(=O)Nc2ccc(C)nc2OC(F)F)(c2ccccc2C(C)C)C1 [Ex 11-62, N-(2-(difluoromethoxy)-6-methylpyridin-3-yl)-3-(2-isopropylphenyl)-1-(2-(methylamino)ethyl)azetidine-3-carboxamide] | 48 nM

Row | SMILES | IC50
17 | CONC(=O)CC(=O)N1CC(C(=O)Nc2ccc(C)nc2OC(F)F)(c2ccccc2C(C)C)C1 [Ex 12-125, N-(2-(difluoromethoxy)-6-methylpyridin-3-yl)-3-(2-isopropylphenyl)-1-(3-(methoxyamino)-3-oxopropanoyl)azetidine-3-carboxamide] | 35 nM
18 | Cc1ccc(NC(=O)C2(c3ccccc3C3=CCCC3)CNC2)c(OC(F)F)n1 [Ex 26, 3-(2-(cyclopent-1-en-1-yl)phenyl)-N-(2-(difluoromethoxy)-6-methylpyridin-3-yl)azetidine-3-carboxamide] | 235 nM
19 | Cc1ccc(NC(=O)C2(c3ccccc3C(C)C)CN(C(=O)C[C@H](O)C(=O)O)C2)c(OC(F)F)n1 [Ex 12-34, (S)-4-(3-((2-(difluoromethoxy)-6-methylpyridin-3-yl)carbamoyl)-3-(2-isopropylphenyl)azetidin-1-yl)-2-hydroxy-4-oxobutanoic acid] | 33 nM
20 | COC(=O)C1(COC(=O)N2CC(C(=O)Nc3ccc(C)nc3OC(F)F)(c3ccccc3C(C)C)C2)CC1 [Ex 14-11, (1-(methoxycarbonyl)cyclopropyl)methyl 3-((2-(difluoromethoxy)-6-methylpyridin-3-yl)carbamoyl)-3-(2-isopropylphenyl)azetidine-1-carboxylate] | 127 nM
21 | Cc1ccc(C2(C(=O)Nc3ccc(C)nc3OC(F)F)CN(C(=O)CC(C)(C)C(=O)O)C2)c(C(C)C)c1 [Ex 39-3, 4-(3-((2-(difluoromethoxy)-6-methylpyridin-3-yl)carbamoyl)-3-(2-isopropyl-4-methylphenyl)azetidin-1-yl)-2,2-dimethyl-4-oxobutanoic acid] | 40 nM
22 | Cc1ccc(NC(=O)C2(c3ccccc3C(C)C)CN(Cc3ccnc(C(=O)O)c3)C2)c(OC(F)F)n1 [Ex 11-51, 4-((3-((2-(difluoromethoxy)-6-methylpyridin-3-yl)carbamoyl)-3-(2-isopropylphenyl)azetidin-1-yl)methyl)picolinic acid] | 41 nM
23 | Cc1ccc(NC(=O)C2(c3ccccc3C(C)C)CN(CCC3(C(=O)O)CC3)C2)c(OC(F)F)n1 [Ex 11-72, 1-(2-(3-((2-(difluoromethoxy)-6-methylpyridin-3-yl)carbamoyl)-3-(2-isopropylphenyl)azetidin-1-yl)ethyl)cyclopropane-1-carboxylic acid] | 52 nM
24 | Cc1ccc(NC(=O)C2(c3ccccc3C(C)C)CN(CC3(CC(=O)O)CC3)C2)c(OC(F)F)n1 [Ex 11-68, 2-(1-((3-((2-(difluoromethoxy)-6-methylpyridin-3-yl)carbamoyl)-3-(2-isopropylphenyl)azetidin-1-yl)methyl)cyclopropyl)acetic acid] | 23 nM
25 | Cc1ccc(NC(=O)C2(c3ccccc3C(C)C)CN(C(=O)CC(F)(F)C(=O)O)C2)c(OC(F)F)n1 [Ex 12-112, 4-(3-((2-(difluoromethoxy)-6-methylpyridin-3-yl)carbamoyl)-3-(2-isopropylphenyl)azetidin-1-yl)-2,2-difluoro-4-oxobutanoic acid] | 39 nM
26 | Cc1ccc(NC(=O)C2(c3ccccc3C(C)C)CN(C(=O)CNCC3(C(=O)O)CC3)C2)c(OC(F)F)n1 [Ex 46, 1-(((2-(3-((2-(difluoromethoxy)-6-methylpyridin-3-yl)carbamoyl)-3-(2-isopropylphenyl)azetidin-1-yl)-2-oxoethyl)amino)methyl)cyclopropane-1-carboxylic acid] | 100 nM
27 | COC(=O)C1(c2ncc(N3CC(C(=O)Nc4ccc(C)nc4OC(F)F)(c4ccccc4C(C)C)C3)cn2)CC1 [Ex 18-16, methyl 1-(5-(3-((2-(difluoromethoxy)-6-methylpyridin-3-yl)carbamoyl)-3-(2-isopropylphenyl)azetidin-1-yl)pyrimidin-2-yl)cyclopropane-1-carboxylate] | 2 nM
28 | Cc1ccc(NC(=O)C2(c3ccccc3C(C)C)CN(CCN(C)CC(=O)O)C2)c(OC(F)F)n1 [Ex 11-82, N-(2-(3-((2-(difluoromethoxy)-6-methylpyridin-3-yl)carbamoyl)-3-(2-isopropylphenyl)azetidin-1-yl)ethyl)-N-methylglycine] | 193 nM
29 | Cc1ccc(NC(=O)C2(c3ccccc3C(C)C)CN(c3cc(C(=O)O)ncn3)C2)c(OC(F)F)n1 [Ex 18-13, 6-(3-((2-(difluoromethoxy)-6-methylpyridin-3-yl)carbamoyl)-3-(2-isopropylphenyl)azetidin-1-yl)pyrimidine-4-carboxylic acid] | 17 nM
30 | Cc1ccc(NC(=O)C2(c3ccccc3C(C)C)CN(C(=O)[C@H](C)N)C2)c(OC(F)F)n1 [Ex 12-33, 1-(L-alanyl)-N-(2-(difluoromethoxy)-6-methylpyridin-3-yl)-3-(2-isopropylphenyl)azetidine-3-carboxamide] | 10 nM
31 | COC(=O)/C=C/S(=O)(=O)N1CC(C(=O)Nc2ccc(C)nc2OC(F)F)(c2ccccc2C(C)C)C1 [Ex 13-20, methyl (E)-3-((3-((2-(difluoromethoxy)-6-methylpyridin-3-yl)carbamoyl)-3-(2-isopropylphenyl)azetidin-1-yl)sulfonyl)acrylate] | 18 nM
